Experimental data as given in PMC9698201, “Factors Affecting Cellular Uptake of Anthocyanins: The Role of pH, Glucose and Anthocyanin Structure” (Nutrients, 2022).

How the values were obtained:
Caco-2 cells = experiment: Uptake experiment, anthocyanins taken up by cells quantified by HPLC; assay type: in vitro ADME, human; details: for increase in uptake with decreasing pH from 7 to 6.5: 10 µM strawberry anthocyanins; for uptake reduction in the presence of glucose: 20 µM red grape anthocyanin extract, 1 mM glucose vs control without glucose; for Normalised Uptake (%): extrapolated to initial amount 10 µg/10 mL, intercept set at zero; for Uptake (%): 1 h, % of initial concentration
Experimental: Caco-2 cells were seeded at a density of 5 × 10^5 cells in a Petri dish of 10 cm diameter with a volume of 10 mL, containing DMEM supplemented with 10% FBS, 1% NEAA and 1% penicillin and streptomycin. […] Caco-2 cells were used between passages 65–76. The medium was changed every 2–3 days. On day 14, the cells were ready for the uptake experiment. Prior to the study, the medium were removed, and the cells were rinsed with PBS.
The effect of anthocyanin structure was examined using anthocyanin extract from strawberry at 10 and 20 µM while the effect of glucose was performed at 20 µM red grape anthocyanin extract in the presence of 1 mM glucose. Additionally, 10 µM strawberry anthocyanins at pH 6.5 and 7 was used to examine the effect of pH on anthocyanin uptake.
Briefly anthocyanin stock solution was diluted to a final concentration of 10 or 20 µM in DPBS. The anthocyanins (10 mL) were immediately added to the cells, and subsequently incubated at 37 °C for 1h. Following the incubation, DPBS containing anthocyanins was removed and the cells were washed with PBS three times. The anthocyanins taken up by the cells were extracted with 6% formic acid and scraped off for collection. The extract along with the scraped cells were then sonicated, followed by centrifugation at 4 °C, 1700× g for 10 min. The supernatant was filtered and dried under nitrogen. The dry anthocyanins were redissolved in 200 µL of aqueous formic acid containing 10% acidified methanol, and then filtered into the insert prior to HPLC analysis.
HPLC was used to identify and quantify anthocyanins present in juices and cellular extract following the uptake experiment. Anthocyanin standards and their standard curves were used to identify and quantify different anthocyanin structure present in juices and cellular extracts by determining their area under curve. The analysis was performed using an Agilent 1200 series HPLC with quaternary pump and diode array UV-visible detector. Sample (50 µL) was injected onto a reverse phase column of Nova-pak@C18 4 µm, with dimensions of 4.6 × 250 mm (Waters) equipped with a guard column. The mobile phases were 1% aqueous formic acid as solvent A and acetonitrile as solvent B. The flow rate was 1 mL/min with a column temperature of 35 °C. […] Solvent B was maintained at 100% for 5 min, and returned to 100% solvent A and 0% solvent B at 60 min. Wavelengths of 280 and 520 nm were chosen to detect the anthocyanins.

[1] = Anthocyanin stability during 1 h incubation at pH 7 and 6.5; assay type: physicochemical
Experimental: To assess degradation due to the pH, strawberry juice extract was incubated under the same conditions in the absence of the cells (Figure 3II). […] Anthocyanins can form additional compounds important for copigmentation with phenolic acids and can form pyranoanthocyanins.
The increased uptake with decreasing pH may be linked to the anthocyanins stability and indicate the involvement of pH dependent transport mechanisms involving a proton co-transporter.

[2] = Extrapolation of Caco-2 uptake to jejunum uptake and blood/plasma concentration; details: absorption of 0.88 mg, assuming 5 litres of blood
[3] = design: method as in PMID 18211024; details: strawberries containing 222 µmol pelargonidin-3-O-glucoside ingested; cited from earlier work
[4] = strawberry anthocyanins at 10 µM, initial amount Cn 1.91, Pg 45.69, Pg-rham 14.50 µg/10 mL
[5] = strawberry anthocyanins at 20 µM, initial amount Cn 3.89, Pg 95.23, Pg-rham 29.59 µg/10 mL

increase in uptake with decreasing pH from 7 to 6.5 (Caco-2 cells) | Normalised Uptake (%) (Caco-2 cells) | Uptake (%) (Caco-2 cells; [4]) | stability ([1]; pH 6.5, 1 h incubation) | stability ([1]; pH 7, 1 h incubation) | Compound | uptake reduction in the presence of glucose (Caco-2 cells) | further results
118% | 0.007% | 2.88 × 10^−2% | 93.7% | 67.7% | OC[C@H]1O[C@@H](Oc2cc3c(O)cc(O)cc3[o+]c2-c2ccc(O)cc2)[C@H](O)[C@@H](O)[C@@H]1O [pelargonidin-3-glucoside] |  | Uptake (%) (Caco-2 cells; [5]): 6.95 × 10^−2%; blood concentration [2]: 400 nM; plasma concentration [2]: 727 nM
88% | 0.02% | 2.66 × 10^−2% | 91.8% | 72.3% | pelargonidin-3-rhamnosylglucoside |  | Uptake (%) (Caco-2 cells; [5]): 5.93 × 10^−2%

More lines, now with the values behind:

Compound | increase in uptake with decreasing pH from 7 to 6.5 (Caco-2 cells) | Normalised Uptake (%) (Caco-2 cells) | Uptake (%) (Caco-2 cells; [4]) | stability ([1]; pH 6.5, 1 h incubation) | stability ([1]; pH 7, 1 h incubation) | uptake reduction in the presence of glucose (Caco-2 cells) | further results
OC[C@H]1O[C@@H](Oc2cc3c(O)cc(O)cc3[o+]c2-c2ccc(O)c(O)c2)[C@H](O)[C@@H](O)[C@@H]1O [cyanidin-3-glucoside] | 139% | 0.159% | 2.32 × 10^−2% | 88.7% | 63.1% | 67% | Uptake (%) (Caco-2 cells; strawberry anthocyanins at 20 µM, initial amount Cn 3.89, Pg 95.23, Pg-rham 29.59 µg/10 mL, listed as Cn): 6.54 × 10^−2%
OC[C@H]1O[C@@H](Oc2cc3c(O)cc(O)cc3[o+]c2-c2cc(O)c(O)c(O)c2)[C@H](O)[C@@H](O)[C@@H]1O [delphinidin-3-glucoside] |  |  |  |  |  | 42% | 
COc1cc(-c2[o+]c3cc(O)cc(O)c3cc2O[C@@H]2O[C@H](CO)[C@@H](O)[C@H](O)[C@H]2O)cc(OC)c1O [malvidin-3-glucoside] |  |  |  |  |  | 69–72% | 
COc1cc(-c2[o+]c3cc(O)cc(O)c3cc2O[C@@H]2O[C@H](CO)[C@@H](O)[C@H](O)[C@H]2O)cc(O)c1O [petunidin-3-glucoside] |  |  |  |  |  | 69–72% | 
pelargonidin-O-glucuronide |  |  |  |  |  |  | peak plasma concentration [3]: 274 ± 24 nM; time of peak plasma concentration [3]: 1.1 ± 0.4 h
